From ChEMBL document CHEMBL1201862, “PubChem BioAssay data set” (2004)
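Dose response: 5 concentrations. Exposure: 48 h. Format: 96-well plates. Endpoint: linear interpolation; highest concentration if not reached. GI50 is the concentration that inhibits growth by half.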 Activity calls are given as the source filed them. No stated cut-off is given here; in the data, active = GI50 up to about 1.1 µM and inactive = higher.

How the values were obtained:
Experiment in all cases: growth of human tumour cells (NCI), 48 h
M14 = tested on: M14
HOP-92 = tested on: HOP-92
MDA-N = tested on: MDA-N
HCT-116 = tested on: HCT-116
U-251 = tested on: U-251
UACC-62 = tested on: UACC-62
CAKI-1 = tested on: CAKI-1
SK-MEL-5 = tested on: SK-MEL-5
K562 = tested on: K562
OVCAR-4 = tested on: OVCAR-4
NCI-H226 = tested on: NCI-H226
CCRF-CEM = tested on: CCRF-CEM
SR = tested on: SR
ACHN = tested on: ACHN
SN12C = tested on: SN12C
BT-549 = tested on: BT-549
SF-295 = tested on: SF-295
RXF 393 = tested on: RXF 393
MOLT-4 = tested on: MOLT-4
HL-60 = tested on: HL-60

Row | SMILES | GI50 (M14) | GI50 (HOP-92) | GI50 (MDA-N) | GI50 (HCT-116) | GI50 (U-251) | GI50 (UACC-62) | GI50 (CAKI-1) | GI50 (SK-MEL-5) | GI50 (K562) | GI50 (OVCAR-4) | GI50 (NCI-H226) | GI50 (CCRF-CEM) | GI50 (SR) | GI50 (ACHN) | GI50 (SN12C) | GI50 (BT-549) | GI50 (SF-295) | GI50 (RXF 393) | GI50 (MOLT-4) | GI50 (HL-60)
1 | Cn1c(=O)c2nc(CCCCc3nc4c(=O)n(C)c(=S)n(C)c4[nH]3)[nH]c2n(C)c1=S | > 100 µM (inactive) | 45.7 µM (inactive) | > 100 µM (inactive) | > 100 µM (inactive) | 57.4 µM (inactive) | > 100 µM (inactive) | > 100 µM (inactive) | > 100 µM (inactive) | > 100 µM (inactive) | > 100 µM (inactive) | > 100 µM (inactive) | > 100 µM (inactive) | > 100 µM (inactive) | > 100 µM (inactive) | > 100 µM (inactive) | > 100 µM (inactive) | 88.1 µM (inactive) | > 100 µM (inactive) | – | –
2 | O=c1[nH]c(=O)n(C2OC(CO)C(O)C2O)c2ncc(-c3ccc(-c4ccccc4)cc3)nc12 (centres undefined) | – | > 20 µM (inactive) | > 20 µM (inactive) | > 20 µM (inactive) | > 20 µM (inactive) | > 20 µM (inactive) | > 20 µM (inactive) | > 20 µM (inactive) | > 20 µM (inactive) | > 20 µM (inactive) | > 20 µM (inactive) | > 20 µM (inactive) | > 20 µM (inactive) | > 20 µM (inactive) | > 20 µM (inactive) | > 20 µM (inactive) | > 20 µM (inactive) | > 20 µM (inactive) | > 20 µM (inactive) | –
3 | CC(C)C[C@H](NC(=O)CCc1cccc2ccccc12)B(O)O | 0.942 µM (active) | 2.17 µM (inactive) | 0.452 µM (active) | 0.473 µM (active) | 1.7 µM (inactive) | 1.3 µM (inactive) | 0.368 µM (active) | 0.457 µM (active) | 2.34 µM (inactive) | 4.56 µM (inactive) | 0.161 µM (active) | – | 0.37 µM (active) | 0.498 µM (active) | 2.19 µM (inactive) | 0.506 µM (active) | 1.74 µM (inactive) | 0.54 µM (active) | 0.375 µM (active) | –
4 | C=C(CN)CO[Si](C)(C)C(C)(C)C | > 100 µM (inactive) | – | > 100 µM (inactive) | > 100 µM (inactive) | > 100 µM (inactive) | > 100 µM (inactive) | > 100 µM (inactive) | > 100 µM (inactive) | > 100 µM (inactive) | – | > 100 µM (inactive) | > 100 µM (inactive) | > 100 µM (inactive) | > 100 µM (inactive) | > 100 µM (inactive) | > 100 µM (inactive) | > 100 µM (inactive) | – | > 100 µM (inactive) | > 100 µM (inactive)
5 | Cc1cc(OC(=O)Nc2ccc(Cl)cc2)ccc1C(=S)Nc1ccccc1 | 12.6 µM (inactive) | > 100 µM (inactive) | 71.3 µM (inactive) | 28.6 µM (inactive) | > 100 µM (inactive) | 3.85 µM (inactive) | 31.8 µM (inactive) | 28 µM (inactive) | 6.49 µM (inactive) | 24.8 µM (inactive) | – | 20.7 µM (inactive) | 64.3 µM (inactive) | 18.7 µM (inactive) | > 100 µM (inactive) | 91.8 µM (inactive) | 38.5 µM (inactive) | – | 29.6 µM (inactive) | 14 µM (inactive)
6 | O=c1cc(CNC2CC3CCC2C3)[nH]c(=O)[nH]1 (centres undefined) | > 100 µM (inactive) | – | > 100 µM (inactive) | > 100 µM (inactive) | > 100 µM (inactive) | > 100 µM (inactive) | > 100 µM (inactive) | > 100 µM (inactive) | > 100 µM (inactive) | > 100 µM (inactive) | – | > 100 µM (inactive) | > 100 µM (inactive) | > 100 µM (inactive) | > 100 µM (inactive) | > 100 µM (inactive) | > 100 µM (inactive) | > 100 µM (inactive) | > 100 µM (inactive) | > 100 µM (inactive)
7 | COC(=O)C(Cc1ccccc1)NP(=O)(O)OCC1OC(n2cc(I)c(=O)[nH]c2=O)CC1O (centres undefined) | > 100 µM (inactive) | > 100 µM (inactive) | > 100 µM (inactive) | > 100 µM (inactive) | > 100 µM (inactive) | > 100 µM (inactive) | > 100 µM (inactive) | > 100 µM (inactive) | > 100 µM (inactive) | > 100 µM (inactive) | > 100 µM (inactive) | > 100 µM (inactive) | > 100 µM (inactive) | > 100 µM (inactive) | > 100 µM (inactive) | > 100 µM (inactive) | > 100 µM (inactive) | – | > 100 µM (inactive) | > 100 µM (inactive)
8 | O=C1Nc2cccc(Cl)c2/C1=C\c1c(Cl)nc2n1CCS2 | > 100 µM (inactive) | 56.9 µM (inactive) | 45.6 µM (inactive) | > 100 µM (inactive) | > 100 µM (inactive) | 73.5 µM (inactive) | > 100 µM (inactive) | > 100 µM (inactive) | > 100 µM (inactive) | – | – | > 100 µM (inactive) | > 100 µM (inactive) | > 100 µM (inactive) | > 100 µM (inactive) | > 100 µM (inactive) | > 100 µM (inactive) | 53.2 µM (inactive) | > 100 µM (inactive) | > 100 µM (inactive)
9 | [O-]/[N+](=N\c1ccccc1CO)c1ccccc1CO | > 100 µM (inactive) | – | > 100 µM (inactive) | > 100 µM (inactive) | > 100 µM (inactive) | > 100 µM (inactive) | > 100 µM (inactive) | > 100 µM (inactive) | > 100 µM (inactive) | > 100 µM (inactive) | > 100 µM (inactive) | > 100 µM (inactive) | > 100 µM (inactive) | – | > 100 µM (inactive) | > 100 µM (inactive) | – | > 100 µM (inactive) | > 100 µM (inactive) | > 100 µM (inactive)
10 | CCc1cccc(CC)c1Nc1nc(-c2ccccc2-c2ccccc2)cs1 | 92.9 µM (inactive) | 46.6 µM (inactive) | 50.8 µM (inactive) | 51.2 µM (inactive) | 54.8 µM (inactive) | 86.5 µM (inactive) | > 100 µM (inactive) | 79.1 µM (inactive) | 51.5 µM (inactive) | > 100 µM (inactive) | – | > 100 µM (inactive) | 52.1 µM (inactive) | > 100 µM (inactive) | > 100 µM (inactive) | 18.2 µM (inactive) | > 100 µM (inactive) | > 100 µM (inactive) | 75.2 µM (inactive) | 55.7 µM (inactive)
11 | O=C(NCCNCCNC(=O)C(F)(F)F)C(F)(F)F | > 100 µM (inactive) | – | > 100 µM (inactive) | > 100 µM (inactive) | > 100 µM (inactive) | > 100 µM (inactive) | > 100 µM (inactive) | > 100 µM (inactive) | > 100 µM (inactive) | > 100 µM (inactive) | > 100 µM (inactive) | > 100 µM (inactive) | > 100 µM (inactive) | > 100 µM (inactive) | > 100 µM (inactive) | > 100 µM (inactive) | > 100 µM (inactive) | > 100 µM (inactive) | > 100 µM (inactive) | > 100 µM (inactive)
12 | CC1OC(OC2C(O)COC(OC3C(C)OC(OC4C(OC(=O)[C@]56CCC(C)(C)C[C@@H]5C5=CCC7[C@@]8(C)C[C@H](O)[C@H](OC9OC(CO)C(O)C(OC%10OC(CO)C(O)C(O)C%10O)C9O)[C@@](C)(CO)[C@@H]8CC[C@@]7(C)[C@]5(C)CC6)OCC(O)C4O)C(O)C3OC3OCC(O)(CO)C3O)C2O)C(O)C(O)C1O (some centres undefined) | 6.15 µM (inactive) | 10.2 µM (inactive) | 10.2 µM (inactive) | 11.2 µM (inactive) | 10.4 µM (inactive) | 12.9 µM (inactive) | 3.98 µM (inactive) | 8.05 µM (inactive) | 22.7 µM (inactive) | 7.94 µM (inactive) | 12.3 µM (inactive) | 6.14 µM (inactive) | 6.28 µM (inactive) | 9.68 µM (inactive) | 3.66 µM (inactive) | 5.19 µM (inactive) | 9.66 µM (inactive) | 7.67 µM (inactive) | 9.77 µM (inactive) | –
13 | COC(=O)C1=C(C(=O)OC)C2(C)CCC(=O)C1O2 (centres undefined) | > 10 µM (inactive) | – | > 10 µM (inactive) | > 10 µM (inactive) | > 10 µM (inactive) | > 10 µM (inactive) | > 10 µM (inactive) | > 10 µM (inactive) | > 10 µM (inactive) | > 10 µM (inactive) | > 10 µM (inactive) | > 10 µM (inactive) | > 10 µM (inactive) | > 10 µM (inactive) | > 10 µM (inactive) | > 10 µM (inactive) | > 10 µM (inactive) | > 10 µM (inactive) | > 10 µM (inactive) | > 10 µM (inactive)
14 | O=[Se](O)O | 3.44 µM (inactive) | – | 2.24 µM (inactive) | 2.36 µM (inactive) | 0.815 µM (active) | 1.32 µM (inactive) | 34.2 µM (inactive) | 2.33 µM (inactive) | > 28.2 µM (inactive) | 7.06 µM (inactive) | 0.828 µM (active) | – | 10 µM (inactive) | 4 µM (inactive) | 1.24 µM (inactive) | 4.9 µM (inactive) | 0.536 µM (active) | 3.76 µM (inactive) | > 20.1 µM (inactive) | 10.4 µM (inactive)
15 | N#CC1=C(C#N)/C(=C(\C#N)C(C#N)C#N)N=C1N | 15.6 µM (inactive) | 28.2 µM (inactive) | 15.4 µM (inactive) | 27.4 µM (inactive) | 35.6 µM (inactive) | 15.1 µM (inactive) | 46.2 µM (inactive) | 17.3 µM (inactive) | 31.5 µM (inactive) | 28.2 µM (inactive) | 30 µM (inactive) | 8.07 µM (inactive) | 25.2 µM (inactive) | 33.3 µM (inactive) | 49.4 µM (inactive) | 24.4 µM (inactive) | 31.2 µM (inactive) | 31.9 µM (inactive) | 13.4 µM (inactive) | –
